Measurements: patent US20090118135A1, “METHODS AND COMPOUNDS FOR REGULATING APOPTOSIS” (The Burnham Institute, priority 2007, published 2009)
Where two headings read alike, the source gives them in different places.

Biological target: T1, GST-Bcl-B (Homo sapiens, UniProt Q9HD36)
T1 sequence (Q9HD36 1-182 limits assumed): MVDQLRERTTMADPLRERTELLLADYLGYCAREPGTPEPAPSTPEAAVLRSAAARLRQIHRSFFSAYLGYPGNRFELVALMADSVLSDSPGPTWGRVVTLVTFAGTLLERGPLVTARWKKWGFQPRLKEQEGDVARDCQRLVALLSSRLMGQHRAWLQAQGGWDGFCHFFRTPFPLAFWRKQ
Assay: Bcl-B/FITC-TR3-r8 fluorescence polarization competition (displacement) assay, HTS and dose-response

[1] = Table 7, NCI Mechanistic library, Binding Assay, FP, Concentration 0.02 uM
[2] = read-out: Result Value (Result Type % Inhibition), BCL-b/TR3, Table 7, NCI Mechanistic library, Binding Assay, FP, Concentration 0.02 uM
[3] = read-out: Result Value (Result Type % Inhibition), BCL-b/TR3
[4] = Table 8, NCI Structural library, Binding Assay, FP, Concentration 0.02 uM
[5] = read-out: Result Value (Result Type % Inhibition), BCL-b/TR3, Table 8, NCI Structural library, Binding Assay, FP, Concentration 0.02 uM

Compound | F Ratio [1] | Is Hit [1] | inhibition at 0.02 µM [2] | inhibition at 0.02 µM [3] | F Ratio [4] | Is Hit [4] | inhibition at 0.02 µM [5]
Cc1cc2c(C(C)C)c(O)c(O)c(C=O)c2c(O)c1-c1c(C)cc2c(C(C)C)c(O)c(O)c(C=O)c2c1O [Compound 56817] | 0.1472 | Yes | 57.3% |  |  |  | 
[O-][n+]1c2c([n+]([O-])c3ccccc31)-c1cccc3cccc-2c13 [Compound 60309] | 1.4371 | Yes |  | 72.3% |  |  | 
Nc1ccc(/N=N/c2ccc(-c3ccc(O)cc3)cc2)c2ccc(S(=O)(=O)O)cc12 [Compound 65528] |  |  |  | 71.6% | 0.1609 | Yes | 
CN(C)C1C(O)=C(C(N)=O)C(=O)C2(O)C(O)=C3C(=O)c4c(O)cccc4C(C)(O)C3CC12.CS(=O)(=O)O (stereo not shown) [Compound 69343] |  |  |  | 93.4% | 0.3746 | Yes | 
Cc1cc2c(c3oc(C4OC4C4OC4C)cc(=O)c13)C(=O)c1c(O)c(C3CC(C)(N(C)C)C(O)C(C)O3)cc(C3CC(N(C)C)C(O)C(C)O3)c1C2=O (stereo not shown) [Compound 70929] | 0.1099 | Yes | 105% |  |  |  | 
O=[N+]([O-])c1ccc2c(/N=N/c3c(O)ccc4ccccc34)c(O)cc(S(=O)(=O)O)c2c1 [Compound 73413] | 0.05947 | Yes |  | 125% |  |  | 
O=[N+]([O-])c1cccc2c(/N=N/c3ccc4ccccc4c3O)c(O)cc(S(=O)(=O)O)c12 [Compound 85561] | 0.06489 | Yes |  | 141% |  |  | 
C[n+]1c(/C=C/c2ccc(O)c3ncccc23)[se]c2ccccc21 [Compound 86374] |  |  |  |  | 0.09444 | Yes | 61.4%
O=S(=O)(O)c1ccc2cc(/N=N/c3cc(S(=O)(=O)O)c4cccnc4c3O)ccc2c1 [Compound 87677] |  |  |  | 66.1% | 0.3822 | Yes | 
C[C@]12CC[C@H]3[C@@H](CCC4=CC(=O)CC[C@@]43C)[C@@H]1CC[C@@H]2C(=O)COS(=O)(=O)c1ccc(Br)cc1 [Compound 88915] |  |  |  | 61.4% | 0.2647 | Yes | 
Cc1cc(C(=C2C=CC(=N)C=C2)c2ccc(N)cc2)ccc1N [Compound 93739] |  |  |  | 78.6% |  |  | 
Oc1ccc(Cc2nccc3cc(O)c(O)cc23)cc1O [Compound 99799] |  |  |  | 77.4% | 0.09369 | Yes | 
O=C1OC(c2ccccc2)=N/C1=C\c1ccc(N(CCCl)CCCl)cc1 [Compound 104117] | 1.2733 | Yes |  | 62.8% |  |  | 
COC(=O)c1ccc(O)c2nc3c(C=O)c(O)cc(O)c3nc12 [Compound 106995] | 0.08027 | Yes |  | 98.9% |  |  | 
COc1cc(-c2[o+]c3cc(O)cc(O)c3cc2O)cc(O)c1O.O=C(O)c1ccccc1 [Compound 114885] |  |  |  |  | 0.08249 | Yes | 108%
Nc1c(S(=O)(=O)O)cc(Nc2cccc(S(N)(=O)=O)c2)c2c1C(=O)c1ccccc1C2=O [Compound 117079] |  |  |  | 163% | 0.4053 | Yes | 
Nc1nc(N)c(/N=N/c2ccc(C(=O)O)c(O)c2)c(N)n1 [Compound 117285] |  |  |  | 59.9% | 0.2954 | Yes | 
CN(C)S(=O)(=O)c1ccc(Nc2ccc(O)c3c2C(=O)c2c([N+](=O)[O-])ccc(O)c2C3=O)cc1 [Compound 117949] |  |  |  | 50.3% | 0.9351 | Yes | 
